The values that follow come from US20200405697A1, “Antitumor Agent” (Taiho Pharmaceutical Co., Ltd, priority 2017, published 2020).

For data set [1] the following is noted: Non-Patent Document 10; cited from earlier work.
Data set [2] has as its system non-small cell lung cancer cell line. The settings on record: combination with cytarabine or gemcitabine; Non-Patent Document 11; cited from earlier work.
The subject of a further data set is mouse leukemia models. The settings on record: combination with etoposide or cisplatin; Non-Patent Document 12; cited from earlier work.
The target in data set [3] is T1, human RNR (histidine tagged human M1 and human M2 proteins) (Homo sapiens, UniProt P23921).
T1 construct: made in house; host or cells: Escherichia coli
T1 sequence (P23921 1-792): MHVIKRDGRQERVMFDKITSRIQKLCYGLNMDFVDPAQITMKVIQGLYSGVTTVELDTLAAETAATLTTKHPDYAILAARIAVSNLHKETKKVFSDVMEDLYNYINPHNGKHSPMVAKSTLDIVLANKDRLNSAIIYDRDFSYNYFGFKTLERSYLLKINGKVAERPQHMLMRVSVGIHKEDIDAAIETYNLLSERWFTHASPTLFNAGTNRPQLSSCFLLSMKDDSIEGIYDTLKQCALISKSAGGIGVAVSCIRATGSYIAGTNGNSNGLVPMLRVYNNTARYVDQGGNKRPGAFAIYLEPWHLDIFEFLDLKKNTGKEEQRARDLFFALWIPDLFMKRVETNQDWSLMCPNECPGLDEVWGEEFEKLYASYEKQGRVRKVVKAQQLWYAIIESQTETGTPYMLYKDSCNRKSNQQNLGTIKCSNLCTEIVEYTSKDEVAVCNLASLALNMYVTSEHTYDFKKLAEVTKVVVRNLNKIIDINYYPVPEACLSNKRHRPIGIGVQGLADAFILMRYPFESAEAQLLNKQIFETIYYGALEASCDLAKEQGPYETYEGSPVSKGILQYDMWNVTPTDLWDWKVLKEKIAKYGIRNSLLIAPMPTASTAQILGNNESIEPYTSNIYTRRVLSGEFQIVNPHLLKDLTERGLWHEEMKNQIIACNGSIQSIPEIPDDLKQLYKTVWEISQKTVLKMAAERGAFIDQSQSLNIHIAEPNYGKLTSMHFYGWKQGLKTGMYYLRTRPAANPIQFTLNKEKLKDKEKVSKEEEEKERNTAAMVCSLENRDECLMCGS
Briefly: Human RNR inhibition effect (dCDP formation from CDP). The class given is biochemical. As to conditions: 10 μM CDP, 37° C. for 30 minutes, read-out: RNR inhibitory activity IC50. In a few lines: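 His-tagged human M1 (isoform 1) and N-terminal 59-aa-truncated M2 (isoform 2), E. coli-expressed, Ni-purified, preincubated 20 min with compound (1% DMSO). Reaction with 10 μM CDP, 2 mM ATP, 0.24 mM NADPH, 6 mM DTT, 4 mM Mg acetate, 100 mM KCl, 50 mM HEPES pH 7.2, 30 min at 37° C. dCDP formed quantified by reverse-phase HPLC after heat stop.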

A further data set deals with HCC 1806 cells. Briefly: Cell proliferation inhibitory effect on human breast cancer cell line. The class given is cell-based. The settings on record: HCC1806, 72 h, crystal violet, read-out: Cell growth suppression IC50. How it is done:
(§1) Human derived breast cancer cell line HCC 1806 cells (American Type Culture Collection, ATCC) were daily passaged at a cell density not exceeding 80% in ATCC recommended Roswell Park Memorial Institute medium (RPMI-1640) containing 10% fetal bovine serum (FBS). In order to start the test of cell proliferation inhibitory activity, HCC 1806 cells were suspended in the above medium, after seeing at 180 μL in each well of a 96-well flat bottom plate so that the number of cells per well was 2,000, the cells were cultured at 37° C. for 1 day in an incubator containing 5% carbon dioxide gas.
(§2) On the next day, the Example compound was dissolved in DMSO, and 20 μL of a drug additive solution diluted serially with distilled water to 10 times of the final concentration was added to each well of the culture plate of the cells, and the cells were cultured at 37° C. for 72 hours in an incubator containing 5% carbon dioxide gas. After culturing for 72 hours, 20 μL of glutaraldehyde was added to each well and allowed to stand for 30 minutes, then the plate was washed 10 times with water and was dried. 100 μL of a stain solution (0.05% crystal violet in a 20% methanol solution) was added to each well and allowed to stand for 30 minutes, then the plate was washed 10 times with water and was dried. 100 μL of an extract solution (0.1 N NaH2PO4: 100% ethanol=1:1) was added to each well and mixed, and the mixture was measured at a wavelength of 540 nm using a plate reader (MTP-450 manufactured by Corona Electric Co., Ltd.).
(§3) The growth inhibition rate was calculated from the following formula, and the concentration (IC50 (μM)) of a compound inhibiting 50% was determined.
Growth inhibition rate (%){(C-B)−(T-B)}(C-B)×100
T: Absorbance of well to which Example compound was added
C: Absorbance of wells to which no Example compound was added
B: Absorbance of wells to which no cell was added

The test system of the next data set is GB-1 cells. Briefly: Cell proliferation inhibitory effect on human cancer cell lines: GB-1. The settings on record: GB-1, Glioblastoma, DMEM + 10% FBS, 3000 cell/well. The class given is cell-based. How it is done:
as §1, §2, §3
(§4) According to the method of Test Example 2, the cell proliferation inhibitory effect on various cancer cell lines as described in Table 24 was evaluated. […]

The next data set relates to MV-4-11. Briefly: Antitumor effect in human-derived blood cancer cell line (MV-4-11) subcutaneous transplantation model (in vivo). On the set-up: species or system nude mouse (BALB/cA Jcl-nu/nu). The settings on record: oral, 100 mg/kg/day once per day for 14 days; RTV vs control group, Student-t test, p<0.05. How it is done:
A human-derived blood cancer cell line MV-4-11 was transplanted subcutaneously into a nude mouse (BALB/cA Jcl-nu/nu, CLEA Japan, Inc.), and at the time when the tumor volume of the nude mouse on which the engrafted tumor reached 100 to 300 mm^3, four mice were assigned to each group by random stratification so that the average of the tumor volumes of each group was uniform (day 0), and the Example compound was orally administered daily at 100 mg/kg/day once per day for 14 days. Example Compound dosing solutions were prepared using 0.5% HPMC.
An electric balance for animals was used in body weight measurement. Rate of change in body weight on day n (BWCn) from body weight on day n (BWn) was calculated according to the following equation.
Rate of change in body weight BWCn (%)=(BWn−BW0)/BW0×100
Tumor volume (TV) was calculated according to the following equation by sandwiching and measuring the major axis and the minor axis with a digital caliper.
Tumor volume (mm^3)=Major axis (mm)×Minor axis (mm)×Minor axis (mm)/2
In order to compare the chronological transition of proliferation of tumor for the administration of each compound, relative tumor volume (RTV) setting the tumor volume at the time of grouping as 1 as the tumor proliferation rate was calculated according to the following formula, and the transition of the average value of RTV of each individual are shown in FIGS. 1 to 4.
RTV=(tumor volume at the day of tumor volume measurement)/(tumor volume at the time of the grouping)

In another data set the test system is NCI-H460 cells. The data set can be described thus: Cell proliferation inhibitory effect on human cancer cell lines: NCI-H460. The class given is cell-based. The settings on record: 72 h, NCI-H460, Lung Cancer, ATCC recommended RPMI-1640 + 10% FBS, 1000 cell/well. How it is done: as §1
(§5) On the next day, the Example compound was dissolved in DMSO, and 20 μL of a drug additive solution diluted serially with distilled water to 10 times of the final concentration was added to each well of the culture plate of the cells, and the cells were cultured at 37° C. for 72 hours in an incubator containing 5% carbon dioxide gas. […] 100 μL of an extract solution (0.1 N NaH2PO4: 100% ethanol=1:1) was added to each well and mixed, and the mixture was measured at a wavelength of 540 nm using a plate reader (MTP-450 manufactured by Corona Electric Co., Ltd.). […]
as §4

A further data set has as its system ACHN cells. The data set can be described thus: Cell proliferation inhibitory effect on human cancer cell lines: ACHN. The class given is cell-based. As to conditions: 72 h, Kidney Cancer, EMEM + 10% FBS, 2000 cell/well. How it is done:
as §1, §5, §4

Another data set relates to A2780 cells. Briefly: Cell proliferation inhibitory effect on human cancer cell lines: A2780. The class given is cell-based. As to conditions: 72 h, A2780, Ovarian Cancer, RPMI-1640 + 10% FBS, 2000 cell/well. How it is done:
as §1, §5, §4

The target of another data set is T2, RNR (Homo sapiens, UniProt P31350).
T2 sequence (P31350 1-389): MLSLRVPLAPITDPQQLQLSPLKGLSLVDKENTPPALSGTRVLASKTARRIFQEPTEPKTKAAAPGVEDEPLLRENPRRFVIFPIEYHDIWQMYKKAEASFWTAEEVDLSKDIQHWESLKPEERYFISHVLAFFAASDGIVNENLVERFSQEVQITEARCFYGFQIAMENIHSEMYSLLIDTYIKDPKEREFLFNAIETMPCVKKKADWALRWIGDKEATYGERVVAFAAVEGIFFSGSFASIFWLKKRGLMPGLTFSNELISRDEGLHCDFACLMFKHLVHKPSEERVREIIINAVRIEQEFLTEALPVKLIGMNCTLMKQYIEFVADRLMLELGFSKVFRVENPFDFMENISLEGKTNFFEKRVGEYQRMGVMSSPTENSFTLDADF
As to conditions: Non-Patent Document 7; cited from earlier work.

The IC50 is the concentration at which inhibition is half-maximal.

`NC(=S)NN=Cc1ncccc1N` [Example 3-AP, 3-aminopyridine-2-carboxaldehyde thiosemicarbazone]: the “side effects in clinical cases” value in data set [1] is “hypoxia, dyspnea, methemoglobinemia”. Also, in data set [2], the “cell proliferation inhibitory effect in combination” value is on record as “enhancement in cell proliferation inhibitory effect”. Moreover, the “life extending effect in combination” value with mouse leukemia models was “enhancement in life extending effect”.
In the case of `[2H]C([2H])([2H])C1(O)CCOc2c(S(=O)(=O)N[C@H](c3n[nH]c(=O)o3)[C@H](C)c3c(F)ccc(Cl)c3C)ccc(Cl)c21` (single isomer, unassigned) [Example 228A], the figures for the IC50 (in data set [3]; with HCC 1806 cells) were 80 nM and 140 nM, respectively.
On the same counts, the results for `CC(=O)OC1(C)CCOc2c(S(=O)(=O)N[C@H](c3n[nH]c(=O)o3)[C@H](C)c3c(F)ccc(C)c3C)ccc(Cl)c21` (stereo partly drawn) [Example 95, 5-chloro-8-(N-((1S,2R)-2-(6-fluoro-2,3-dimethylphenyl)-1-(5-oxo-4,5-dihydro-1,3,4-oxadiazol-2-yl)propyl)sulfamoyl)-4-methylchroman-4-ylacetate] are 140 nM and 140 nM.
On to `CCc1ccc(F)c([C@@H](C)[C@H](NS(=O)(=O)c2ccc(Cl)cc2C(N)=O)c2n[nH]c(=O)o2)c1C` [Example 11, 5-chloro-2-(N-((1S,2R)-2-(3-ethyl-6-fluoro-2-methylphenyl)-1-(5-oxo-4,5-dihydro-1,3,4-oxadiazol-2-yl)propyl)sulfamoyl)benzamide], for which the 50% inhibitory concentration (IC50) in [3] amounted to 180 nM; in the data set with GB-1 cells it was 5220 nM. For the same compound, the “antitumor effect (relative tumor volume, RTV)” value in the data set with MV-4-11 is listed as “antitumor effect”.
For `Cc1ccc(F)c([C@@H](C)[C@H](NS(=O)(=O)c2ccc(Cl)cc2C(N)=O)c2n[nH]c(=O)o2)c1C` [Example 5] the same measures were 140 nM, 1570 nM and “antitumor effect”.
On to `[2H]C([2H])([2H])C1(O)CCOc2c(S(=O)(=O)N[C@H](c3n[nH]c(=O)o3)[C@H](C)c3c(F)ccc(C)c3C)ccc(Cl)c21` (single isomer, unassigned) [Example 200A], for which the half-maximal inhibitory concentration (IC50) in data set [3] is 30 nM; in the data set with NCI-H460 cells, 130 nM; in the data set with ACHN cells, 130 nM; with A2780 cells it was 130 nM. The “antitumor effect (relative tumor volume, RTV)” value in the data set on MV-4-11 is listed as “antitumor effect”.
With `NC(=O)NO` [HU, hydroxyurea], the RNR inhibitory activity result on RNR was “very weak”.
For `COc1c(S(=O)(=O)N[C@H](c2n[nH]c(=O)o2)[C@H](C)c2c(F)ccc(C)c2C)ccc(Cl)c1C(C)O` (stereo partly drawn) [Example 204, 4-chloro-N-((1S,2R)-2-(6-fluoro-2,3-dimethylphenyl)-1-(5-oxo-4,5-dihydro-1,3,4-oxadiazol-2-yl)propyl)-3-(1-hydroxyethyl)-2-methoxybenzenesulfonamide], the 50% inhibitory concentration (IC50) (in data set [3]; in the data set with HCC 1806 cells) was 150 nM in each case.
